Assay results as given in ChEMBL document CHEMBL1649342, “Synthesis of azafluorenone antimicrobial agents” (2010).
Converted amounts (≈) assume the structure as drawn.

What was measured:
Type in all cases: functional
Candida albicans = experiment: Antimicrobial activity against Candida albicans B311
Staphylococcus aureus = experiment: Antimicrobial activity against Staphylococcus aureus NCTC 8530
Bacillus subtilis = experiment: Antimicrobial activity against Bacillus subtilis IFO 3007
Escherichia coli = experiment: Antimicrobial activity against Escherichia coli IFO 3545
Saccharomyces cerevisiae = experiment: Antimicrobial activity against Saccharomyces cerevisiae IFO 0203

An MIC (Candida albicans) of 3.12 µg/mL (≈ 16 µM), an MIC (Staphylococcus aureus) of 50 µg/mL (≈ 256 µM) and an MIC (Bacillus subtilis) of 50 µg/mL (≈ 256 µM) were found for `Cc1ccnc2c1C(=O)c1ccccc1-2` [ONYCHINE] in this work. For the same molecule, the MIC (Escherichia coli) was 50 µg/mL (≈ 256 µM) and the MIC (Saccharomyces cerevisiae) was 50 µg/mL (≈ 256 µM).
